*1 amine or outer side, *2 acyl side, *3 side chain or, on linkers, in order; H or OH if unused. Where a SMILES comes first, the peptide text is derived from it. Bridges are numbered along the chain shown (N, C = ends). Roman numbers before positions name the chains, in order. [ ]: non-standard residue; d: D form. Actinocin(9to1) = Cc1c2oc3c(C)ccc(C(=O)[*:1])c3nc-2c(C(=O)[*:2])c(N)c1=O; NMeV = CN[C@H](C(=O)O)C(C)C; Sar = CNCC(=O)O
Key:
[1] = human
[2] = human; remark: listed apart in the source
[3] = Times to onset, minimal and maximal, observed in the indexed observations. [column 'DELAI' in source]; conditions: human
[4] = human; remark: listed apart in the source
[5] = human, serum
[6] = human, serum, 4383 h
[7] = human, serum; remark: listed apart in the source
[8] = Proposed mechanism(s) of liver damage. [column 'MEC' in source]; conditions: human
[9] = Highest frequency of moderate liver toxicity observed during clinical trials, expressed as a percentage. [column '% BIOL' in source]; conditions: human
[10] = Presence of at least one case with successful reintroduction. [column 'REINT' in source]; conditions: human
[11] = human; remark: listed apart in the source
[12] = Comments (NB not yet translated). [column 'COMMENTAIRES' in source]; conditions: human
[13] = human; remark: listed apart in the source
[14] = human; remark: listed apart in the source
[15] = Highest frequency of acute liver toxicity observed during clinical trials, expressed as a percentage. [column '% AIGUE' in source]; conditions: human
[16] = human; remark: listed apart in the source
[17] = human; remark: listed apart in the source
[18] = human; remark: listed apart in the source
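Throughout, for Hepatotoxicity (association with vascular disease): count of indexed literature references reporting vascular liver injury in humans, e.g. peliosis hepatitis, hepatic veno-occlusive disease or Budd-Chiari syndrome.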
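Throughout, for Hepatotoxicity (benign tumour): value is a count of indexed literature references citing a benign tumour confirmed by histopathology.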
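Throughout, for Hepatotoxicity (choleostasis): human cholestatic liver injury, shown by histopathology or by peak ALT or AST elevation over alkaline phosphatase ratio below 2, value counts indexed literature reports.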
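Throughout, for Hepatotoxicity (chronic liver disease): chronic liver injury confirmed by histopathology or persistently raised serum aminotransferase activity beyond 6 months, value given as the count of indexed literature references.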
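Throughout, for Hepatotoxicity (cirrhosis): value is a count of indexed literature references reporting cirrhosis confirmed by histopathology.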
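Throughout, for Hepatotoxicity (cytolytic): human cytolytic liver injury, shown by histopathology or by a ratio above 5 of peak ALT or AST elevation to alkaline phosphatase elevation, value counts indexed references.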
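Throughout, for Hepatotoxicity (granulomatous hepatitis): value is a count of indexed literature references reporting granulomatous liver disease confirmed by histopathology.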
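Throughout, for Hepatotoxicity (malignant tumour): malignant tumour confirmed by histopathology, value gives the count of indexed literature references reporting it.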
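Throughout, for Hepatotoxicity (severe hepatitis): human clinical data: severe hepatitis, meaning potentially life-threatening liver failure or clinically observed cases, the value counts how many indexed literature references report it.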
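Throughout, for Hepatotoxicity (steatosis): steatosis confirmed by histopathology, value is the count of indexed references.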

| SMILES | Hepatotoxicity (malignant tumour) [1] | Hepatotoxicity (association with vascular disease) [2] | Hepatotoxicity (time to onset) [3] | Hepatotoxicity (choleostasis) [4] | Hepatotoxicity (moderate) [5] | Hepatotoxicity (chronic liver disease) [6] | Hepatotoxicity (acute) [7] | Hepatotoxicity (mechanism) [8] | Hepatotoxicity (moderate) [9] | Hepatotoxicity (successful reintroduction) [10] | Hepatotoxicity (severe hepatitis) [11] | Hepatotoxicity (comment) [12] | Hepatotoxicity (cirrhosis) [13] | Hepatotoxicity (granulomatous hepatitis) [14] | Hepatotoxicity (acute) [15] | Hepatotoxicity (cytolytic) [16] | Hepatotoxicity (benign tumour) [17] | Hepatotoxicity (steatosis) [18] | other results |
| --- | --- | --- | --- | --- | --- | --- | --- | --- | --- | --- | --- | --- | --- | --- | --- | --- | --- | --- | --- |
| CC(=O)OCC1=C(C(=O)O)N2C(=O)[C@@H](NC(=O)CSc3ccncc3)[C@H]2SC1 [CEPHAPIRIN] | 0 | 0 | 1 week | 1 | 0 | 0 | 1 | Allergic | 0% | yes | 0 | RC/CEFALOTINE | 0 | 0 | 0% | 0 | 0 | 0 |  |
| O=C(O)COCCN1CCN(C(c2ccccc2)c2ccc(Cl)cc2)CC1 (centres undefined) [CETIRIZINE] | 0 | 0 | 1 day - 2 years | 1 | 1 | 0 | 5 | Allergic |  | yes |  | AC_ANTI-MFR1 | 0 | 0 |  | 4 | 0 | 0 | Hepatotoxicity (moderate) ([9]; Liver): 3.8%; Hepatotoxicity (severe hepatitis) ([11]; Liver): 0; Hepatotoxicity (acute) ([15]; Liver): 0% |
| O=C(O)CCCc1ccc(N(CCCl)CCCl)cc1 [CHLORAMBUCIL] | 1 | 0 | 2 weeks - 25 months | 3 | 1 | 1 | 7 | Allergic | 5.3% | yes | 1 | PERICHOLANGITE REACTIVATION_HVB | 1 | 0 | 4.8% | 4 | 0 | 0 |  |
| CCCNC(=O)NS(=O)(=O)c1ccc(Cl)cc1 [CHLORPROPAMIDE] | 0 | 0 | 2 weeks - 2 years | 29 | 3 | 0 | 34 | Allergic, Dose-dependant | 25% | yes | 1 | RC/TOLBUTAMIDE/TOLAZAMIDE #CBP | 0 | 4 | 0.5% | 9 | 0 | 0 |  |
| COc1ccc2c(C(=O)c3ccc(Cl)cc3)c(C)n(CC(=O)O)c2c1 [CLOMETACIN] | 0 | 0 | 1 week - 10 years | 12 | 6 | 21 | 18 | Allergic | 0% | yes | 9 | AC_ANTI-ADN/-ML HLAB8 | 9 | 0 | 0% | 14 | 0 | 0 |  |
| Nc1ccn([C@@H]2O[C@H](CO)[C@@H](O)[C@@H]2O)c(=O)n1 [CYTARABINE] | 0 | 7 | 1 cure - 2 cures |  | 33 | 0 | 14 |  |  | yes |  | HCF HNR REACTIVATION_HVB MVO | 0 |  |  |  | 0 | 0 | Hepatotoxicity (choleostasis) ([4]; Liver): 3; Hepatotoxicity (mechanism) ([8]; Liver): Dose-dependant; Hepatotoxicity (moderate) ([9]; Liver): 75%; Hepatotoxicity (severe hepatitis) ([11]; Liver): 6; Hepatotoxicity (granulomatous hepatitis) ([14]; Liver): 0; Hepatotoxicity (acute) ([15]; Liver): 28.6%; Hepatotoxicity (cytolytic) ([16]; Liver): 6 |
| Cc1c2oc3c(C)ccc(C(=O)N[C@@H]4C(=O)N[C@H](C(C)C)C(=O)N5CCC[C@H]5C(=O)N(C)CC(=O)N(C)[C@@H](C(C)C)C(=O)O[C@@H]4C)c3nc-2c(C(=O)N[C@@H]2C(=O)N[C@H](C(C)C)C(=O)N3CCC[C@H]3C(=O)N(C)CC(=O)N(C)[C@@H](C(C)C)C(=O)O[C@@H]2C)c(N)c1=O [DACTINOMYCIN] (I: T[dV]P[Sar][NMeV] / II: T[dV]P[Sar][NMeV]; ester I:1-I:C, II:1-II:C; linker I:N-II:N via Actinocin(9to1)) | 0 | 16 | 3 weeks - 2 months | 0 | 8 | 1 | 7 | Dose-dependant | 12% | yes | 6 | I/RADIOTHERAPIE HNR | 0 | 0 | 8.8% | 5 | 1 | 0 |  |
| C#C[C@]1(O)CC[C@H]2[C@@H]3CCC4=Cc5oncc5C[C@]4(C)[C@H]3CC[C@@]21C [DANAZOL] | 5 | 2 | 3 days - 20 years | 8 | 32 | 0 | 13 | Dose-dependant | 42.1% | yes | 2 | HNF | 0 | 0 | 9.4% | 6 | 12 | 0 |  |

Source: ChEMBL document CHEMBL3137667, “[Drug-induced liver injury; fourteenth updated edition of the bibliographic database of liver injuries and related drugs]” (Gastroenterol Clin Biol, 2004)
